{
  "source": "patent US20050288347A1",
  "about": "“Certain triazole-based compounds, compositions, and uses thereof” (priority 2004, published 2005)",
  "note": "“Also recorded” adds a separate entry of the source.",
  "data": [
    {"molecular_target": "protein kinase", "experiment": "HTS ATP-utilizing enzyme assay, off-chip mobility-shift format (Caliper HTS 250)", "format": "biochemical, human", "conditions": "kinase(s) for which the compound exhibits protein kinase inhibitory activity; test compound 10 μM; active = greater than three-sigma from the mean activity of inactive compounds", "outline": "(§1)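 Kinase reactions ran 2.5 h at 20 to 22 °C with test compound at 10 μM, in a HEPES pH 7.5 master buffer containing Triton X-100 and BSA. Peptide substrate and phosphorylated product separated by mobility shift; inhibition normalized to DMSO (0%) and EDTA (100%) controls, with three-sigma thresholds for hits.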", "values": [
      {"smiles": "COc1ccccc1-n1c(S)nnc1-c1cccnc1", "note": "[4-(2-methoxyphenyl)-5-(pyridin-3-yl)-4H-1,2,4-triazole-3-thiol]", "Kinase": "AURORA-A"},
      {"smiles": "Sc1nnc(C2CCCCC2)n1-c1cccc(Cl)c1", "note": "[4-(3-chlorophenyl)-5-cyclohexyl-4H-1,2,4-triazole-3-thiol]", "Kinase": "AURORA-A"},
      {"smiles": "Oc1ccc(-c2nnc(S)n2-c2cccc(Cl)c2)cc1", "note": "[4-(4-(3-chlorophenyl)-5-mercapto-4H-1,2,4-triazol-3-yl)phenol]", "Kinase": "CDK5 and CDK2-cyclinA and CDK2-cyclinE"},
      {"smiles": "Nc1c(Cl)cc(-n2c(S)nnc2-c2ccccc2)cc1Cl", "note": "[4-(4-amino-3,5-dichlorophenyl)-5-phenyl-4H-1,2,4-triazole-3-thiol]", "Kinase": "GSK3-β; also recorded: GSK3-α; also recorded: CDK2-cyclinE"},
      {"smiles": "COc1ccc(-n2c(S)nnc2-c2cccnc2)cc1", "note": "[4-(4-methoxyphenyl)-5-(pyridin-3-yl)-4H-1,2,4-triazole-3-thiol]", "Kinase": "ABL1"},
      {"smiles": "COc1ccc(-n2c(C)nnc2S)cc1", "note": "[4-(4-methoxyphenyl)-5-methyl-4H-1,2,4-triazole-3-thiol]", "Kinase": "AURORA-A"}
    ]},
    {"system": "protein kinase", "experiment": "HTS ATP-utilizing enzyme assay, off-chip mobility-shift format (Caliper HTS 250)", "format": "biochemical, human", "conditions": "test compound 10 μM; active = activity greater than three-sigma from the mean of the predominately inactive population for that enzyme", "outline": "as §1", "values": [
      {"smiles": "c1csc(-c2nnc(SCC3CCCCC3)[nH]2)c1", "note": "[3-(cyclohexylmethylthio)-5-(thiophen-2-yl)-4H-1,2,4-triazole]", "protein kinase against which the compound exhibits inhibitory activity (Table 3)": "AURORA-A; also recorded: DYRK2"},
      {"smiles": "Cc1cccc(-c2nnc(SCC3CCCCC3)[nH]2)c1", "note": "[3-(cyclohexylmethylthio)-5-m-tolyl-4H-1,2,4-triazole]", "protein kinase against which the compound exhibits inhibitory activity (Table 3)": "AURORA-A; also recorded: c-TAK1"},
      {"smiles": "Cc1nnc(SCC2CCCCC2)[nH]1", "note": "[3-(cyclohexylmethylthio)-5-methyl-4H-1,2,4-triazole]", "protein kinase against which the compound exhibits inhibitory activity (Table 3)": "AURORA-A; also recorded: GSK3-α"},
      {"smiles": "c1ccc(-c2nnc(SCC3CCCCC3)[nH]2)cc1", "note": "[3-(cyclohexylmethylthio)-5-phenyl-4H-1,2,4-triazole]", "protein kinase against which the compound exhibits inhibitory activity (Table 3)": "AURORA-A; also recorded: c-TAK1; also recorded: CHEK2"},
      {"smiles": "FC(F)(F)Oc1ccc(-c2nnc(SCC3CC3)[nH]2)cc1", "note": "[3-(cyclopropylmethylthio)-5-(4-(trifluoromethoxy)phenyl)-4H-1,2,4-triazole]", "protein kinase against which the compound exhibits inhibitory activity (Table 3)": "FLT-3; also recorded: AURORA-A"},
      {"smiles": "c1ccc(OCc2nnc(SCC3CC3)[nH]2)cc1", "note": "[3-(cyclopropylmethylthio)-5-(phenoxymethyl)-4H-1,2,4-triazole]", "protein kinase against which the compound exhibits inhibitory activity (Table 3)": "GSK3-α; also recorded: GSK3-β; also recorded: AURORA-A"},
      {"smiles": "CCSc1nnc(-c2ccc([N+](=O)[O-])cc2)n1C", "note": "[3-(ethylthio)-4-methyl-5-(4-nitrophenyl)-4H-1,2,4-triazole]", "protein kinase against which the compound exhibits inhibitory activity (Table 3)": "PDGFRR-α and FYN"},
      {"smiles": "CCC(c1ccccc1)c1nnc(SCc2cccc3ccccc23)[nH]1", "note": "(centres unmarked) [3-(naphthalen-1-ylmethylthio)-5-(1-phenylpropyl)-4H-1,2,4-triazole]", "protein kinase against which the compound exhibits inhibitory activity (Table 3)": "AURORA-A"},
      {"smiles": "Cc1cccc(-c2nnc(SCc3cccc4ccccc34)[nH]2)c1", "note": "[3-(naphthalen-1-ylmethylthio)-5-m-tolyl-4H-1,2,4-triazole]", "protein kinase against which the compound exhibits inhibitory activity (Table 3)": "AURORA-A"},
      {"smiles": "FC(F)(F)c1cccc(-c2nnc(SCCc3ccccc3)[nH]2)c1", "note": "[3-(phenethylthio)-5-(3-(trifluoromethyl)phenyl)-4H-1,2,4-triazole]", "protein kinase against which the compound exhibits inhibitory activity (Table 3)": "AURORA-A; also recorded: GSK3-α"},
      {"smiles": "c1ccc(CCSc2nnc(-c3cccs3)[nH]2)cc1", "note": "[3-(phenethylthio)-5-(thiophen-2-yl)-4H-1,2,4-triazole]", "protein kinase against which the compound exhibits inhibitory activity (Table 3)": "AURORA-A; also recorded: FLT-3"},
      {"smiles": "COc1ccc(-n2c(Cc3ccccc3)nnc2SC)cc1", "note": "[3-benzyl-4-(4-methoxyphenyl)-5-(methylthio)-4H-1,2,4-triazole]", "protein kinase against which the compound exhibits inhibitory activity (Table 3)": "AKT1"},
      {"smiles": "Cc1ccc(CSc2nnc(Cc3ccccc3)[nH]2)cc1", "note": "[3-benzyl-5-(4-methylbenzylthio)-4H-1,2,4-triazole]", "protein kinase against which the compound exhibits inhibitory activity (Table 3)": "AURORA-A"},
      {"smiles": "Clc1ccc(Cn2c(Cc3ccccc3)nnc2SCc2ccccc2)cc1Cl", "note": "[3-benzyl-5-(benzylthio)-4-(3,4-dichlorobenzyl)-4H-1,2,4-triazole]", "protein kinase against which the compound exhibits inhibitory activity (Table 3)": "AURORA-A"},
      {"smiles": "Cc1ccc(CCn2c(Cc3ccccc3)nnc2SCc2ccccc2)cc1", "note": "[3-benzyl-5-(benzylthio)-4-(4-methylphenethyl)-4H-1,2,4-triazole]", "protein kinase against which the compound exhibits inhibitory activity (Table 3)": "FLT-3 and PRAK and AURORA-A"},
      {"smiles": "c1ccc(CCn2c(Cc3ccccc3)nnc2SCc2ccccc2)cc1", "note": "[3-benzyl-5-(benzylthio)-4-phenethyl-4H-1,2,4-triazole]", "protein kinase against which the compound exhibits inhibitory activity (Table 3)": "AURORA-A"},
      {"smiles": "CCc1nnc(SCC=C(C)C)n1CCc1ccccc1", "note": "[3-ethyl-5-(3-methylbut-2-enylthio)-4-phenethyl-4H-1,2,4-triazole]", "protein kinase against which the compound exhibits inhibitory activity (Table 3)": "GSK3-α"},
      {"smiles": "Cc1nnc(SCc2cccc3ccccc23)[nH]1", "note": "[3-methyl-5-(naphthalen-1-ylmethylthio)-4H-1,2,4-triazole]", "protein kinase against which the compound exhibits inhibitory activity (Table 3)": "AURORA-A; also recorded: DYRK2; also recorded: GSK3-α"},
      {"smiles": "Cc1nnc(SCCc2ccccc2)[nH]1", "note": "[3-methyl-5-(phenethylthio)-4H-1,2,4-triazole]", "protein kinase against which the compound exhibits inhibitory activity (Table 3)": "AURORA-A; also recorded: GSK3-β"},
      {"smiles": "c1ccc(-c2nnc(SCCN3CCCC3)[nH]2)cc1", "note": "[3-phenyl-5-(2-(pyrrolidin-1-yl)ethylthio)-4H-1,2,4-triazole]", "protein kinase against which the compound exhibits inhibitory activity (Table 3)": "GSK3-α; also recorded: GSK3-β; also recorded: CHEK2"},
      {"smiles": "Cc1cccc(-c2nnc(SCCN3CCOCC3)n2C)c1", "note": "[4-(2-(4-methyl-5-m-tolyl-4H-1,2,4-triazol-3-ylthio)ethyl)morpholine]", "protein kinase against which the compound exhibits inhibitory activity (Table 3)": "AKT1"},
      {"smiles": "Clc1ccc(-c2nnc(SCCN3CCOCC3)[nH]2)cc1Cl", "note": "[4-(2-(5-(3,4-dichlorophenyl)-4H-1,2,4-triazol-3-ylthio)ethyl)morpholine]", "protein kinase against which the compound exhibits inhibitory activity (Table 3)": "AURORA-A; also recorded: GSK3-α; also recorded: GSK3-β"},
      {"smiles": "COc1ccc(-c2nnc(SCCN3CCOCC3)[nH]2)cc1", "note": "[4-(2-(5-(4-methoxyphenyl)-4H-1,2,4-triazol-3-ylthio)ethyl)morpholine]", "protein kinase against which the compound exhibits inhibitory activity (Table 3)": "GSK3-α; also recorded: AURORA-A; also recorded: GSK3-β"},
      {"smiles": "O=[N+]([O-])c1ccc(-c2nnc(SCCN3CCOCC3)n2-c2ccccc2)cc1", "note": "[4-(2-(5-(4-nitrophenyl)-4-phenyl-4H-1,2,4-triazol-3-ylthio)ethyl)morpholine]", "protein kinase against which the compound exhibits inhibitory activity (Table 3)": "PDGFRR-α"},
      {"smiles": "O=[N+]([O-])c1ccc(-c2nnc(SCCN3CCOCC3)[nH]2)cc1", "note": "[4-(2-(5-(4-nitrophenyl)-4H-1,2,4-triazol-3-ylthio)ethyl)morpholine]", "protein kinase against which the compound exhibits inhibitory activity (Table 3)": "GSK3-β; also recorded: GSK3-α; also recorded: AURORA-A"},
      {"smiles": "c1csc(-c2nnc(SCCN3CCOCC3)[nH]2)c1", "note": "[4-(2-(5-(thiophen-2-yl)-4H-1,2,4-triazol-3-ylthio)ethyl)morpholine]", "protein kinase against which the compound exhibits inhibitory activity (Table 3)": "AURORA-A; also recorded: GSK3-β; also recorded: GSK3-α"},
      {"smiles": "Cc1cccc(-c2nnc(SCCN3CCOCC3)[nH]2)c1", "note": "[4-(2-(5-m-tolyl-4H-1,2,4-triazol-3-ylthio)ethyl)morpholine]", "protein kinase against which the compound exhibits inhibitory activity (Table 3)": "AURORA-A; also recorded: GSK3-β; also recorded: GSK3-α"},
      {"smiles": "COc1ccccc1-n1c(SCCCC(=O)O)nnc1-c1ccccc1", "note": "[4-(4-(2-methoxyphenyl)-5-phenyl-4H-1,2,4-triazol-3-ylthio)butanoic acid]", "protein kinase against which the compound exhibits inhibitory activity (Table 3)": "c-TAK1"},
      {"smiles": "Oc1ccc(-c2nnc(SCc3ccccc3)n2Cc2ccccc2)cc1", "note": "[4-(4-benzyl-5-(benzylthio)-4H-1,2,4-triazol-3-yl)phenol]", "protein kinase against which the compound exhibits inhibitory activity (Table 3)": "GSK3-β and GSK3-α and LYNA"},
      {"smiles": "CCSc1nnc(-c2ccc(O)cc2)n1Cc1ccccc1", "note": "[4-(4-benzyl-5-(ethylthio)-4H-1,2,4-triazol-3-yl)phenol]", "protein kinase against which the compound exhibits inhibitory activity (Table 3)": "GSK3-β; also recorded: GSK3-α"},
      {"smiles": "CSc1nnc(-c2ccc(O)cc2)n1Cc1ccccc1", "note": "[4-(4-benzyl-5-(methylthio)-4H-1,2,4-triazol-3-yl)phenol]", "protein kinase against which the compound exhibits inhibitory activity (Table 3)": "GSK3-α; also recorded: GSK3-β"},
      {"smiles": "Cn1c(SCc2ccccn2)nnc1-c1ccc(O)cc1", "note": "[4-(4-methyl-5-(pyridin-2-ylmethylthio)-4H-1,2,4-triazol-3-yl)phenol]", "protein kinase against which the compound exhibits inhibitory activity (Table 3)": "GSK3-β; also recorded: GSK3-α"},
      {"smiles": "CCn1c(SCc2ccccc2Br)nnc1-c1cc(-c2ccccc2)nc2ccccc12", "note": "[4-(5-(2-bromobenzylthio)-4-ethyl-4H-1,2,4-triazol-3-yl)-2-phenylquinoline]", "protein kinase against which the compound exhibits inhibitory activity (Table 3)": "CHEK2"},
      {"smiles": "Cn1c(SCc2c(F)cccc2Cl)nnc1-c1ccncc1", "note": "[4-(5-(2-chloro-6-fluorobenzylthio)-4-methyl-4H-1,2,4-triazol-3-yl)pyridine]", "protein kinase against which the compound exhibits inhibitory activity (Table 3)": "GSK3-β; also recorded: AURORA-A"},
      {"smiles": "CCn1c(SCc2ccccc2Cl)nnc1-c1cc(-c2ccccc2)nc2ccccc12", "note": "[4-(5-(2-chlorobenzylthio)-4-ethyl-4H-1,2,4-triazol-3-yl)-2-phenylquinoline]", "protein kinase against which the compound exhibits inhibitory activity (Table 3)": "CHEK2"},
      {"smiles": "Oc1ccc(-c2nnc(SCCN3CCOCC3)n2-c2ccccc2)cc1", "note": "[4-(5-(2-morpholinoethylthio)-4-phenyl-4H-1,2,4-triazol-3-yl)phenol]", "protein kinase against which the compound exhibits inhibitory activity (Table 3)": "GSK3-α"},
      {"smiles": "CCn1c(SCc2ccc(Cl)cc2)nnc1-c1ccc(O)cc1", "note": "[4-(5-(4-chlorobenzylthio)-4-ethyl-4H-1,2,4-triazol-3-yl)phenol]", "protein kinase against which the compound exhibits inhibitory activity (Table 3)": "MSK2 and GSK3-β and MSK1"},
      {"smiles": "CCn1c(SCc2ccc(Cl)cc2)nnc1-c1ccncc1", "note": "[4-(5-(4-chlorobenzylthio)-4-ethyl-4H-1,2,4-triazol-3-yl)pyridine]", "protein kinase against which the compound exhibits inhibitory activity (Table 3)": "PKA and AURORA-A and MSK2"}
    ]}
  ]
}
